The experiment relates to P388 leukemia ip, CD2F1 mice, survival T/C. Nature of the experiment: NCI In Vivo Anticancer Drug Screen. Data for tumor model P388 Leukemia (intraperitoneal) in CD2F1 (CDF1) mice. The following applies: endpoint: median survival time, higher = longer survival. The method, boiled down: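 Mice carrying the transplanted tumor received test compound or vehicle. Survival was recorded in each group, and the value is the treated-group measurement divided by that of the vehicle-treated control group.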

Where [1] appears, read: dose: 50.0 mg/kg/injection, schedule: Q01DX009 (ip), vehicle: saline with Tween-80.
Where [2] appears, read: dose: 50.0 mg/kg/injection, schedule: Q01DX009 (ip), vehicle: Klucel (hydroxypropylcellulose) (HPC).
The mark [3] stands for this setting: dose: 100.0 mg/kg/injection, schedule: Q01DX009 (ip), vehicle: Klucel (hydroxypropylcellulose) (HPC).

This is an account of results in PubChem BioAssay AID330 (DTP/NCI, 2004).

The structures appear in SMILES notation. Several values for one entry are separate records, joined by “and”; a condition that tells them apart may be missing. Equal values may be shown once. Inconclusive results and toxic doses are left out.

As for `O=C1/C(=C/c2ccc(F)cc2)SC(=S)N1c1ccc(Cl)c(Cl)c1`, the T/C is, setting by setting: (dose: 25.0 mg/kg/injection, schedule: Q01DX009 (ip), vehicle: saline) 91 % of control and 95 % of control; (dose: 50.0 mg/kg/injection, schedule: Q01DX009 (ip), vehicle: saline) 104 % of control and 91 % of control and 94 % of control; (dose: 100.0 mg/kg/injection, schedule: Q01DX009 (ip), vehicle: saline) 100 % of control and 94 % of control; (dose: 200.0 mg/kg/injection, schedule: Q01DX009 (ip), vehicle: saline) 108 % of control and 124 % of control and 91 % of control.
In the case of `Cc1cc(C)c(N(C)C)c(C)c1`, the T/C reads like this: (dose: 100.0 mg/kg/injection, schedule: Q04DX002 (ip), vehicle: saline with Tween-80) 109 % of control; (dose: 200.0 mg/kg/injection, schedule: Q04DX002 (ip), vehicle: saline with Tween-80) 110 % of control.
As for `Cc1c2nc(N)nc-2ccc2[nH]c(N)nc12`, the T/C by setting is: (dose: 0.5 mg/kg/injection, schedule: Q01DX009 (ip), vehicle: Klucel (hydroxypropylcellulose) (HPC)) 102 % of control; (dose: 1.0 mg/kg/injection, schedule: Q01DX009 (ip), vehicle: Klucel (hydroxypropylcellulose) (HPC)) 108 % of control; (dose: 2.0 mg/kg/injection, schedule: Q01DX009 (ip), vehicle: Klucel (hydroxypropylcellulose) (HPC)) 108 % of control; (dose: 4.0 mg/kg/injection, schedule: Q01DX009 (ip), vehicle: Klucel (hydroxypropylcellulose) (HPC)) 102 % of control.
As to `Cn1nc(-c2ccc(Cl)c(Cl)c2)nc2c(=O)n(C)c(=O)nc1-2`, the T/C (dose: 12.5 mg/kg/injection, schedule: Q01DX001 (ip), vehicle: Klucel (hydroxypropylcellulose) (HPC)) was 102 % of control; the T/C (dose: 25.0 mg/kg/injection, schedule: Q01DX001 (ip), vehicle: Klucel (hydroxypropylcellulose) (HPC)) is 107 % of control; the T/C (dose: 50.0 mg/kg/injection, schedule: Q01DX001 (ip), vehicle: Klucel (hydroxypropylcellulose) (HPC)) is 103 % of control and 114 % of control.
Take `CCO/C=C1\SC(=S)N(c2ccco2)C1=O`: the T/C is 118 % of control (dose: 100.0 mg/kg/injection, schedule: Q04DX003 (ip), vehicle: saline with Tween-80); 118 % of control (dose: 200.0 mg/kg/injection, schedule: Q04DX003 (ip), vehicle: saline with Tween-80); 104 % of control (dose: 400.0 mg/kg/injection, schedule: Q04DX003 (ip), vehicle: saline with Tween-80).
For the molecule `CNC(=O)OCc1c(COC(=O)NC)c(-c2ccc(S(C)(=O)=O)cc2)n(C)c1C`, the T/C is 111 % of control (dose: 12.5 mg/kg/injection, schedule: Q01DX009 (ip), vehicle: distilled water + Tween-80); 162 % of control (dose: 50.0 mg/kg/injection, schedule: Q01DX009 (ip), vehicle: distilled water + Tween-80); 161 % of control and 180 % of control (dose: 100.0 mg/kg/injection, schedule: Q01DX009 (ip), vehicle: distilled water + Tween-80); 198 % of control (dose: 200.0 mg/kg/injection, schedule: Q01DX009 (ip), vehicle: distilled water + Tween-80).
With `CCN(CC)C(=O)Nc1ccc(O)c(C(=O)O)c1`, the T/C was 100 % of control (dose: 100.0 mg/kg/injection, schedule: Q01DX001 (ip), vehicle: saline with Tween-80); 100 % of control (dose: 200.0 mg/kg/injection, schedule: Q01DX001 (ip), vehicle: saline with Tween-80); 100 % of control (dose: 400.0 mg/kg/injection, schedule: Q01DX001 (ip), vehicle: saline with Tween-80).
For the molecule `Cc1ccccc1C(=O)N1C(=O)Cc2ccccc21`, the T/C (dose: 100.0 mg/kg/injection, schedule: Q01DX001 (ip), vehicle: Klucel (hydroxypropylcellulose) (HPC)) is 97 % of control; the T/C (dose: 200.0 mg/kg/injection, schedule: Q01DX001 (ip), vehicle: Klucel (hydroxypropylcellulose) (HPC)) was 91 % of control; the T/C (dose: 400.0 mg/kg/injection, schedule: Q01DX001 (ip), vehicle: Klucel (hydroxypropylcellulose) (HPC)) is 90 % of control.
On to `O=C(Nc1ccc(F)cc1)Nc1nccs1`, for which the T/C by setting is: (dose: 17.5 mg/kg/injection, schedule: Q01DX009 (ip), vehicle: Klucel (hydroxypropylcellulose) (HPC)) 108 % of control; (dose: 35.0 mg/kg/injection, schedule: Q01DX009 (ip), vehicle: Klucel (hydroxypropylcellulose) (HPC)) 110 % of control; under setting [1], 96 % of control; (dose: 70.0 mg/kg/injection, schedule: Q01DX009 (ip), vehicle: Klucel (hydroxypropylcellulose) (HPC)) 108 % of control; (dose: 100.0 mg/kg/injection, schedule: Q01DX009 (ip), vehicle: saline with Tween-80) 95 % of control; (dose: 140.0 mg/kg/injection, schedule: Q01DX009 (ip), vehicle: Klucel (hydroxypropylcellulose) (HPC)) 115 % of control. The T/C (dose: 200.0 mg/kg/injection, schedule: Q01DX009 (ip), vehicle: saline with Tween-80) was 104 % of control.
For the molecule `O=C(NNC(=O)c1cccc(C(=O)NNC(=O)c2ccc(Cl)c(Cl)c2)n1)c1ccc(Cl)c(Cl)c1`, the T/C by setting is: (dose: 12.5 mg/kg/injection, schedule: Q01DX009 (ip), vehicle: Klucel (hydroxypropylcellulose) (HPC)) 106 % of control and 98 % of control; (dose: 25.0 mg/kg/injection, schedule: Q01DX009 (ip), vehicle: Klucel (hydroxypropylcellulose) (HPC)) 108 % of control and 95 % of control; under setting [2], 105 % of control and 122 % of control; under setting [3], 119 % of control.
Take `Cc1cc(Cl)cc(S(=O)(=O)O)c1N`: the T/C is 95 % of control (dose: 100.0 mg/kg/injection, schedule: Q04DX003 (ip), vehicle: Klucel (hydroxypropylcellulose) (HPC)); 97 % of control (dose: 200.0 mg/kg/injection, schedule: Q04DX003 (ip), vehicle: Klucel (hydroxypropylcellulose) (HPC)); 97 % of control (dose: 400.0 mg/kg/injection, schedule: Q04DX003 (ip), vehicle: Klucel (hydroxypropylcellulose) (HPC)).
For the molecule `COc1ccccc1/C(=N/Nc1ccccc1)[N+](=O)[O-]`, the T/C runs as follows: (dose: 50.0 mg/kg/injection, schedule: Q01DX009 (ip), vehicle: saline + Tween-80 + alcohol) 106 % of control; (dose: 100.0 mg/kg/injection, schedule: Q01DX009 (ip), vehicle: saline + Tween-80 + alcohol) 101 % of control; (dose: 200.0 mg/kg/injection, schedule: Q01DX009 (ip), vehicle: saline + Tween-80 + alcohol) 109 % of control.
In the case of `Nc1nc(N)c(Cc2ccccn2)cc1Cc1ccccn1`, the T/C was 98 % of control (dose: 50.0 mg/kg/injection, schedule: Q01DX005 (ip), vehicle: Klucel (hydroxypropylcellulose) (HPC)) and 103 % of control (dose: 100.0 mg/kg/injection, schedule: Q01DX005 (ip), vehicle: Klucel (hydroxypropylcellulose) (HPC)).
For `O=NN(C(=O)NC1CCOCC1)C1CCOCC1`, the T/C runs as follows: (dose: 25.0 mg/kg/injection, schedule: Q01DX001 (ip), vehicle: distilled water + Tween-80) 101 % of control; (dose: 50.0 mg/kg/injection, schedule: Q01DX001 (ip), vehicle: distilled water + Tween-80) 101 % of control; (dose: 100.0 mg/kg/injection, schedule: Q01DX001 (ip), vehicle: distilled water + Tween-80) 102 % of control; (dose: 200.0 mg/kg/injection, schedule: Q01DX001 (ip), vehicle: distilled water + Tween-80) 105 % of control; (dose: 400.0 mg/kg/injection, schedule: Q01DX001 (ip), vehicle: distilled water + Tween-80) 102 % of control.
`CCCCCCCC(=O)Nc1ccc(CC)cc1`: the T/C is 109 % of control (dose: 100.0 mg/kg/injection, schedule: Q04DX003 (ip), vehicle: other); 90 % of control (dose: 200.0 mg/kg/injection, schedule: Q04DX003 (ip), vehicle: other); 118 % of control (dose: 400.0 mg/kg/injection, schedule: Q04DX003 (ip), vehicle: other).
Regarding `COc1ccc2nc(NN=O)sc2c1`, the T/C is 92 % of control (dose: 1.56 mg/kg/injection, schedule: Q01DX009 (ip), vehicle: water); 101 % of control and 103 % of control (dose: 3.12 mg/kg/injection, schedule: Q01DX009 (ip), vehicle: water); 100 % of control and 92 % of control (dose: 6.25 mg/kg/injection, schedule: Q01DX009 (ip), vehicle: water); 100 % of control and 101 % of control (dose: 12.5 mg/kg/injection, schedule: Q01DX009 (ip), vehicle: water); 104 % of control and 97 % of control (dose: 25.0 mg/kg/injection, schedule: Q01DX009 (ip), vehicle: water); 111 % of control (dose: 50.0 mg/kg/injection, schedule: Q01DX009 (ip), vehicle: water).
As for `CP1(=S)C=C(N2CCOCC2)CC1` (stereo unspecified), the T/C was 100 % of control under setting [2]; 100 % of control under setting [3]; 86 % of control (dose: 200.0 mg/kg/injection, schedule: Q01DX009 (ip), vehicle: Klucel (hydroxypropylcellulose) (HPC)).
In the case of `NC(=S)/C(N)=N/Nc1ccc(Cl)cc1`, the T/C by setting is: (dose: 6.25 mg/kg/injection, schedule: Q01DX009 (ip), vehicle: saline with Tween-80) 104 % of control; (dose: 12.5 mg/kg/injection, schedule: Q01DX009 (ip), vehicle: saline with Tween-80) 103 % of control; (dose: 25.0 mg/kg/injection, schedule: Q01DX009 (ip), vehicle: saline with Tween-80) 106 % of control; under setting [1], 116 % of control.
